Source: US20090298708A1, “2'-DEOXY-2'-FLUORO-BETA-D-ARABINONUCLEOSIDE 5'-TRIPHOSPHATES AND THEIR USE IN ENZYMATIC NUCLEIC ACID SYNTHESIS” (priority 2006, published 2009)

Tests used:
[1] = target: T1, HIV-1 RT (recombinant) (Human immunodeficiency virus type 1 group M subtype B, UniProt P04585); test: Primer extension assay with HIV-1 RT; format: biochemical; set-up: key to Incorporation of three 2′F-araTTP / 2′F-araCTP (incorporation efficiency) / Enzymatic activity during primer extension reactions: ++++: excellent (no pausing observed); +++: very good (with slight pausing); ++: Good, full-length products with significant pausing; +: significant pausing, no full-length product but at least one 2′F-araN incorporation detected; conditions: for Incorporation of three 2′F-araTTP / 2′F-araCTP (incorporation efficiency) / Order of efficiency of incorporation / Enzymatic activity during primer extension reactions: 37° C.; for Incorporation of three 2′F-araTTP / 2′F-araCTP (incorporation efficiency): DNA template PF22 (2′F-araTTP) or PF24 (2′F-araCTP); for Order of efficiency of incorporation: DNA template PF22 (T/U triphosphates) or PF24 (C triphosphates), three contiguous units; for Enzymatic activity during primer extension reactions: plus dATP, dGTP
T1 construct: Reverse transcriptases (RT): • MMLV-RT (MMLV or MM; source: Fermentas); • HIV-1 RT (recombinant); purchased Worthington Biochemical Corp
Excerpt: (§1) Primer extension assays were used to assess the incorporation of 2′F-araNTP on the various DNA templates (Table 1). The DNA primer (PF20) was first radioactively labeled at the 5′-hydroxyl terminus with a radioactive phosphorus probe and the enzyme T4 polynucleotide kinase (T4 PNK) (see Example 1 for General Methods). To assess the incorporation of 2′F-araNTPs, the primer and template were annealed, and the nucleoside 5′-triphosphates added in the presence of enzyme under the conditions specified in Table 2. Time points were obtained by analyzing small aliquots from the reaction mixture through polyacryamide gel electrophoresis (PAGE) and autoradiography.
(§2) Primer extension assays were used to assess the incorporation efficiency of contiguous 2′F-ara(T/C)TPs compared to 2′F-r(U/C)TP on a DNA template (e.g. PF22 or PF24). To this end, a DNA template (e.g. PF22: FIGS. 15, 16, 17A, 18, 21A; PF24: FIGS. 17B, 19, 20, 21B), primer and the appropriate NTPs (e.g. combination of dATP/dCTP/dGTP/ and NTP, where N=dT, 2′F-araT, 2′F-rU, or rU (FIGS. 15, 16, 17A, 18, 21A); or combination of dATP/dGTP/dTTP/ and NTP, where N=dC, 2′F-araC, 2′F-rC, or rC (FIGS. 17B, 19, 20, 21B)), were incubated in the presence one of MMLV-RT, 9N, HIV or DV polymerase. The protocols and conditions are described in Example 2 and Table 2.
(§3) Unless otherwise noticed in the Examples described below, the conditions used in the primer extension assays, such as dNTP concentration, reaction temperatures, concentration of Mg^2+, and reaction buffers (provided by the manufacturers, except for the HIV buffer which was prepared in-house) are shown in Table 2.
(§4) Primer extension assays were used to assess the incorporation of 2′F-araTTP on the DNA template (PF22). The DNA primer (PF20) was first radioactively labeled at the 5′-hydroxyl terminus with a radioactive phosphorus probe and the enzyme T4 polynucleotide kinase (T4 PNK) according to the manufacturer's specifications (MBI Fermentas Life Sciences, Burlington, ON). Incorporation of the ^32P label was accomplished in reaction mixtures consisting of DNA substrate (200 pmol), 2 μl loxreaction buffer (Buffer A for forward reaction: 500 mM Tris-HCl, pH 7.6 at 25° C., 100 mM MgCl2, 50 mM DTT, 1 mM spermidine and 1 mM EDTA), 1 μl T4 PNK enzyme solution (10 U/1 μl in a solution of 20 mM Tris-HCl, pH 7.5, 25 mM KCl, 0.1 mM EDTA, 2 mM DTT and 50% glycerol), 6 μl [γ-^32P]-ATP solution (6000 Ci/mmol, 10 mCi/ml; Amersham Biosciences, Inc.) and autoclaved sterile water to a final volume of 20 μl. The reaction mixture was incubated for about 45-60 min at 37° C., followed by a second incubation for 10 min at 95° C. to heat denature and deactivate the kinase enzyme. The solution was purified according to a standard protocol and the isolated yield of 5′-^32P-DNA following gel extraction averages 50%. The pure labeled samples were kept at −20° C. for future use.
(§5) Usually 2 or 3 folds of cold (unlabeled) DNA primer were combined with the radioactive primer. Then primer to template was mixed together with the final concentration at 85 nM for the primer and 255 nM for the template (i.e. the primer:template=1:3 molar ratio). The primer and template were heated at 95° C. for 5 min and annealed at 4° C. for at least two hours before use. In an Eppendorf tube, the following reagents, 5× or 10× buffer, nucleoside 5′-triphosphates (DATP, dGTP, dCTP, 2′F-araTTP at the same concentrations; see legend of FIG. 2), water, the primer and template mixture, were added together according to pre-calculated reaction volume (20 μL) and concentrations (see reaction conditions in Table 2). Mineral oil (20 μL) was usually used to prevent evaporation. The reaction mixture was incubated at either 37° C. or 55° C. and one of the various enzymes tested was added to initiate the primer extension reactions. […]

[2] = target: T2, MMLV-RT (Moloney murine leukemia virus, UniProt P03355); test: Primer extension assay with MMLV-RT; format: biochemical; set-up: key to Incorporation of three 2′F-araTTP / 2′F-araCTP (incorporation efficiency) / Enzymatic activity during primer extension reactions: ++++: excellent (no pausing observed); +++: very good (with slight pausing); ++: Good, full-length products with significant pausing; +: significant pausing, no full-length product but at least one 2′F-araN incorporation detected; conditions: for Enzymatic activity during primer extension reactions: plus dATP, dGTP; for Order of efficiency of incorporation: DNA template PF22 (T/U triphosphates) or PF24 (C triphosphates), three contiguous units; for Incorporation of three 2′F-araTTP / 2′F-araCTP (incorporation efficiency): DNA template PF22 (2′F-araTTP) or PF24 (2′F-araCTP)
T2 construct: Reverse transcriptases (RT): • MMLV-RT (MMLV or MM; source: Fermentas); purchased Fermentas
Excerpt: as §1, §2, §3, §4, §5

Structure (SMILES)	Incorporation of three 2′F-araTTP / 2′F-araCTP (incorporation efficiency) [1]	Order of efficiency of incorporation [1]	Order of efficiency of incorporation ([2]; MMLV-RT, 37° C.)	Incorporation of three 2′F-araTTP / 2′F-araCTP (incorporation efficiency) ([2]; MMLV, 37° C.)	further results
Nc1ccn([C@@H]2O[C@H](COP(=O)(O)OP(=O)(O)OP(=O)(O)O)[C@@H](O)[C@@H]2F)c(=O)n1 [2′F-araCTP, 1-(2-deoxy-2-fluoro-β-D-arabinofuranosyl)cytosine 5′-triphosphate]	++++	dCTP~2′F-rCTP ≧ 2′F-araCTP > CTP	dCTP~2′F-rCTP ≧ 2′F-araCTP > CTP	++++	Enzymatic activity during primer extension reactions ([1]; Example 3, DNA template PF24, 3x 2′F-araCTP, dTTP): ++++; Enzymatic activity during primer extension reactions ([2]; Example 3, DNA template PF24, 3x 2′F-araCTP, dTTP, MMLV, 37° C.): +++; premature products ([2]; MMLV-RT, DNA template PF24, after 60 mins, 37° C.): ca. 90%
Nc1ccn([C@@H]2O[C@H](COP(=O)(O)OP(=O)(O)OP(=O)(O)O)[C@@H](O)[C@H]2F)c(=O)n1 [2′F-rCTP, 1-(2-deoxy-2-fluoro-β-D-ribofuranosyl) cytosine 5′-triphosphate, reference compound]		dCTP~2′F-rCTP ≧ 2′F-araCTP > CTP	dCTP~2′F-rCTP ≧ 2′F-araCTP > CTP		full-length product ([2]; MMLV-RT, DNA template PF24, 37° C.): ~100%
O=c1ccn([C@@H]2O[C@H](COP(=O)(O)OP(=O)(O)OP(=O)(O)O)[C@@H](O)[C@H]2F)c(=O)[nH]1 [2′F-rUTP, 1-(2-deoxy-2-fluoro-β-D-ribo-furanosyl)uracil 5′-triphosphate, reference compound]		dTTP > 2′F-araTTP > 2′F-rUTP > UTP	dTTP > 2′F-araTTP > 2′F-rUTP > UTP		
Cc1cn([C@H]2C[C@H](O)[C@@H](COP(=O)(O)OP(=O)(O)OP(=O)(O)O)O2)c(=O)[nH]c1=O [dTTP, reference compound]		dTTP > 2′F-araTTP > 2′F-rUTP > UTP	dTTP > 2′F-araTTP > 2′F-rUTP > UTP		
Nc1ccn([C@H]2C[C@H](O)[C@@H](COP(=O)(O)OP(=O)(O)OP(=O)(O)O)O2)c(=O)n1 [dCTP]		dCTP~2′F-rCTP ≧ 2′F-araCTP > CTP	dCTP~2′F-rCTP ≧ 2′F-araCTP > CTP		
Cc1cn([C@@H]2O[C@H](COP(=O)(O)OP(=O)(O)OP(=O)(O)O)[C@@H](O)[C@@H]2F)c(=O)[nH]c1=O [2′F-araTTP, 1-(2-deoxy-2-fluoro-β-D-arabino-furanosyl)thymine 5′-triphosphate]	++++	dTTP > 2′F-araTTP > 2′F-rUTP > UTP	dTTP > 2′F-araTTP > 2′F-rUTP > UTP	+++	substrate property for HIV RT ([1]; DNA template PF22, compared to 2′F-rUTP and rUTP): excellent substrate; Enzymatic activity during primer extension reactions ([1]; Example 2, DNA template PF22, 3x 2′F-araTTP, dCTP): ++++; Enzymatic activity during primer extension reactions ([2]; Example 2, DNA template PF22, 3x 2′F-araTTP, dCTP, MMLV, 37° C.): +++; substrate property for MMLV (second incorporations of modified triphosphates) ([2]; MMLV, DNA template PF22, compared to 2′F-rUTP and rUTP): best substrate
